Key:
barnyardgrass [1] = test: Test A preemergence; format: in vivo, Echinochloa crus-galli; conditions: 0 to 100 scale (0 no effect, 100 complete control)
How it was run: (§1)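 Loam/sand soil mix; compound in non-phytotoxic solvent + surfactant. Pre: directed soil spray right after planting seed. Post: potted plants 2–10 cm, 1–2 leaf stage, sprayed with same formulation.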

barnyardgrass [2] = test: Test A postemergence; format: in vivo, Echinochloa crus-galli; conditions: 0 to 100 scale (0 no effect, 100 complete control), approx. 10 d
How it was run: as §1

foxtail, giant [3] = test: Test A postemergence; format: in vivo, Setaria faberii; conditions: 0 to 100 scale (0 no effect, 100 complete control), approx. 10 d
How it was run: as §1

pigweed = test: Test A postemergence; format: in vivo, Amaranthus retroflexus; conditions: 0 to 100 scale (0 no effect, 100 complete control), approx. 10 d
How it was run: as §1

wheat = test: Test A postemergence; format: in vivo, Triticum aestivum; conditions: 0 to 100 scale (0 no effect, 100 complete control), approx. 10 d
How it was run: as §1

corn [4] = test: Test A postemergence; format: in vivo, Zea mays; conditions: 0 to 100 scale (0 no effect, 100 complete control), approx. 10 d
How it was run: as §1

sedge, umbrella = test: Test B flooded paddy test; format: in vivo, Cyperus difformis; conditions: 250 g ai/ha, applied to paddy water at 2-leaf stage, visual rating after 13 to 15 d, scale 0 (no effect) to 100 (complete control)
How it was run: (§2)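 Pots were flooded to 3 cm above the soil at treatment, and compounds were applied directly into the paddy water. That depth was held throughout. After 13 to 15 d in a greenhouse, plants were rated visually against untreated controls.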

ducksalad = test: Test B flooded paddy test; format: in vivo, Heteranthera limosa; conditions: 250 g ai/ha, applied to paddy water at 2-leaf stage, visual rating after 13 to 15 d, scale 0 (no effect) to 100 (complete control)
How it was run: as §2

barnyardgrass [5] = test: Test B flooded paddy test; format: in vivo, Echinochloa crus-galli; conditions: 250 g ai/ha, applied to paddy water at 2-leaf stage, visual rating after 13 to 15 d, scale 0 (no effect) to 100 (complete control)
How it was run: as §2

ryegrass, Italian = test: Test C postemergence; format: in vivo, Lolium multiflorum
How it was run: (§3)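 Pre: seeded into loam/sand, sprayed same time. Post: plants in peat moss–vermiculite mix with starter nutrients and dolomitic limestone, treated at 1- to 4-leaf stage (2 to 18 cm). Formulation: non-phytotoxic solvent blend plus surfactant.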

corn [6] = test: Test C postemergence; format: in vivo, Zea mays
How it was run: as §3

crabgrass, large = test: Test C postemergence; format: in vivo, Digitaria sanguinalis
How it was run: as §3

foxtail, giant [7] = test: Test C postemergence; format: in vivo, Setaria faberii
How it was run: as §3

morningglory = test: Test C postemergence; format: in vivo, Ipomoea coccinea
How it was run: as §3

nutsedge, yellow = test: Test C postemergence; format: in vivo, Cyperus esculentus
How it was run: as §3

ragweed = test: Test C postemergence; format: in vivo, Ambrosia elatior
How it was run: as §3

barnyardgrass [8] = test: Test C postemergence; format: in vivo, Echinochloa crus-galli
How it was run: as §3

oilseed rape = test: Test C postemergence; format: in vivo, Brassica napus; conditions: Oilseed Rape
How it was run: as §3

waterhemp = test: Test C postemergence; format: in vivo, Amaranthus rudis
How it was run: as §3

velvetleaf = test: Test C postemergence; format: in vivo, Abutilon theophrasti
How it was run: as §3

kochia = test: Test C postemergence; format: in vivo, Kochia scoparia
How it was run: as §3

With CCOc1nc(-c2ccc(Cl)cc2)nn1Cc1ccnc(C(F)(F)F)c1 [Compound 26] the “Plant response rating, Barnyardgrass” value (barnyardgrass [1]; 31 g ai/ha) was 60, the “Plant response rating, Barnyardgrass” value (barnyardgrass [1]; 125 g ai/ha) was 90 and the “Plant response rating, Barnyardgrass” value (barnyardgrass [2]; 31 g ai/ha) was 40. For the same compound, the “Plant response rating, Barnyardgrass” value (barnyardgrass [2]; 125 g ai/ha) was 70, the “Plant response rating, Foxtail, Giant” value (foxtail, giant [3]; 31 g ai/ha) was 70 and the “Plant response rating, Foxtail, Giant” value (foxtail, giant [3]; 125 g ai/ha) was 90. The “Plant response rating, Pigweed” value (pigweed; 31 g ai/ha) was 80, the “Plant response rating, Pigweed” value (pigweed; 125 g ai/ha) was 100 and the “Plant response rating, Wheat” value (wheat; 31 g ai/ha) was 20. The “Plant response rating, Wheat” value (wheat; 125 g ai/ha) was 20, the “Plant response rating, Corn” value (corn [4]; 31 g ai/ha) was 30 and the “Plant response rating, Corn” value (corn [4]; 125 g ai/ha) was 40. For the same compound, the “Plant response rating, Sedge, Umbrella, Flood” value (sedge, umbrella) was 90, the “Plant response rating, Ducksalad, Flood” value (ducksalad) was 70 and the “Plant response rating, Barnyardgrass, Flood” value (barnyardgrass [5]) was 50. For the same compound, the “Plant response rating (scale of 0 to 100 where 0 is no effect and 100 is complete control)” value (ryegrass, Italian; 16 g ai/ha) was 20, the “Plant response rating (scale of 0 to 100 where 0 is no effect and 100 is complete control)” value (ryegrass, Italian; 31 g ai/ha) was 35 and the “Plant response rating (scale of 0 to 100 where 0 is no effect and 100 is complete control)” value (ryegrass, Italian; 62 g ai/ha) was 35. The “Plant response rating (scale of 0 to 100 where 0 is no effect and 100 is complete control)” value (ryegrass, Italian; 125 g ai/ha) was 40, the “Plant response rating (scale of 0 to 100 where 0 is no effect and 100 is complete control)” value (corn [6]; 16 g ai/ha) was 25 and the “Plant response rating (scale of 0 to 100 where 0 is no effect and 100 is complete control)” value (corn [6]; 31 g ai/ha) was 25. For the same compound, the “Plant response rating (scale of 0 to 100 where 0 is no effect and 100 is complete control)” value (corn [6]; 62 g ai/ha) was 30, the “Plant response rating (scale of 0 to 100 where 0 is no effect and 100 is complete control)” value (corn [6]; 125 g ai/ha) was 35 and the “Plant response rating (scale of 0 to 100 where 0 is no effect and 100 is complete control)” value (crabgrass, large; 16 g ai/ha) was 20. The “Plant response rating (scale of 0 to 100 where 0 is no effect and 100 is complete control)” value (crabgrass, large; 31 g ai/ha) was 20, the “Plant response rating (scale of 0 to 100 where 0 is no effect and 100 is complete control)” value (crabgrass, large; 62 g ai/ha) was 35 and the “Plant response rating (scale of 0 to 100 where 0 is no effect and 100 is complete control)” value (crabgrass, large; 125 g ai/ha) was 50. For the same compound, the “Plant response rating (scale of 0 to 100 where 0 is no effect and 100 is complete control)” value (foxtail, giant [7]; 16 g ai/ha) was 10, the “Plant response rating (scale of 0 to 100 where 0 is no effect and 100 is complete control)” value (foxtail, giant [7]; 31 g ai/ha) was 20 and the “Plant response rating (scale of 0 to 100 where 0 is no effect and 100 is complete control)” value (foxtail, giant [7]; 62 g ai/ha) was 25. For the same compound, the “Plant response rating (scale of 0 to 100 where 0 is no effect and 100 is complete control)” value (foxtail, giant [7]; 125 g ai/ha) was 40, the “Plant response rating (scale of 0 to 100 where 0 is no effect and 100 is complete control)” value (morningglory; 16 g ai/ha) was 90 and the “Plant response rating (scale of 0 to 100 where 0 is no effect and 100 is complete control)” value (morningglory; 31 g ai/ha) was 90. For the same compound, the “Plant response rating (scale of 0 to 100 where 0 is no effect and 100 is complete control)” value (morningglory; 62 g ai/ha) was 75, the “Plant response rating (scale of 0 to 100 where 0 is no effect and 100 is complete control)” value (morningglory; 125 g ai/ha) was 85 and the “Plant response rating (scale of 0 to 100 where 0 is no effect and 100 is complete control)” value (nutsedge, yellow; 16 g ai/ha) was 15. The “Plant response rating (scale of 0 to 100 where 0 is no effect and 100 is complete control)” value (nutsedge, yellow; 31 g ai/ha) was 25, the “Plant response rating (scale of 0 to 100 where 0 is no effect and 100 is complete control)” value (nutsedge, yellow; 62 g ai/ha) was 30 and the “Plant response rating (scale of 0 to 100 where 0 is no effect and 100 is complete control)” value (nutsedge, yellow; 125 g ai/ha) was 20. For the same compound, the “Plant response rating (scale of 0 to 100 where 0 is no effect and 100 is complete control)” value (ragweed; 16 g ai/ha) was 85, the “Plant response rating (scale of 0 to 100 where 0 is no effect and 100 is complete control)” value (ragweed; 31 g ai/ha) was 90 and the “Plant response rating (scale of 0 to 100 where 0 is no effect and 100 is complete control)” value (ragweed; 62 g ai/ha) was 70. The “Plant response rating (scale of 0 to 100 where 0 is no effect and 100 is complete control)” value (ragweed; 125 g ai/ha) was 85, the “Plant response rating (scale of 0 to 100 where 0 is no effect and 100 is complete control)” value (barnyardgrass [8]; 16 g ai/ha) was 25 and the “Plant response rating (scale of 0 to 100 where 0 is no effect and 100 is complete control)” value (barnyardgrass [8]; 31 g ai/ha) was 30. The “Plant response rating (scale of 0 to 100 where 0 is no effect and 100 is complete control)” value (barnyardgrass [8]; 62 g ai/ha) was 45, the “Plant response rating (scale of 0 to 100 where 0 is no effect and 100 is complete control)” value (barnyardgrass [8]; 125 g ai/ha) was 55 and the “Plant response rating (scale of 0 to 100 where 0 is no effect and 100 is complete control)” value (oilseed rape; 16 g ai/ha) was 90. The “Plant response rating (scale of 0 to 100 where 0 is no effect and 100 is complete control)” value (oilseed rape; 31 g ai/ha) was 98, the “Plant response rating (scale of 0 to 100 where 0 is no effect and 100 is complete control)” value (oilseed rape; 62 g ai/ha) was 90 and the “Plant response rating (scale of 0 to 100 where 0 is no effect and 100 is complete control)” value (oilseed rape; 125 g ai/ha) was 95. For the same compound, the “Plant response rating (scale of 0 to 100 where 0 is no effect and 100 is complete control)” value (waterhemp; 16 g ai/ha) was 95, the “Plant response rating (scale of 0 to 100 where 0 is no effect and 100 is complete control)” value (waterhemp; 31 g ai/ha) was 98 and the “Plant response rating (scale of 0 to 100 where 0 is no effect and 100 is complete control)” value (waterhemp; 62 g ai/ha) was 98. The “Plant response rating (scale of 0 to 100 where 0 is no effect and 100 is complete control)” value (waterhemp; 125 g ai/ha) was 98, the “Plant response rating (scale of 0 to 100 where 0 is no effect and 100 is complete control)” value (velvetleaf; 16 g ai/ha) was 60 and the “Plant response rating (scale of 0 to 100 where 0 is no effect and 100 is complete control)” value (velvetleaf; 31 g ai/ha) was 60. The “Plant response rating (scale of 0 to 100 where 0 is no effect and 100 is complete control)” value (velvetleaf; 62 g ai/ha) was 65, the “Plant response rating (scale of 0 to 100 where 0 is no effect and 100 is complete control)” value (velvetleaf; 125 g ai/ha) was 70 and the “Plant response rating (scale of 0 to 100 where 0 is no effect and 100 is complete control)” value (kochia; 16 g ai/ha) was 85. The “Plant response rating (scale of 0 to 100 where 0 is no effect and 100 is complete control)” value (kochia; 31 g ai/ha) was 90, the “Plant response rating (scale of 0 to 100 where 0 is no effect and 100 is complete control)” value (kochia; 62 g ai/ha) was 90 and the “Plant response rating (scale of 0 to 100 where 0 is no effect and 100 is complete control)” value (kochia; 125 g ai/ha) was 90.

— patent publication US10681909B2, “Herbicidal triazoles” (FMC Corporation, priority 2014, dated 2020)
